Results: EPA's ToxRefDB 2

Key:
dog = details: Subchronic oral toxicity in nonrodent, beagle, Water, dose end: 90 day, group: systemic, systemic / in life observation / clinical signs / vomitting
mouse [1] = details: Chronic toxicity; b6c3f1; Inhalation; Whole-Body; dose end: 78 week; group: systemic; systemic / in life observation / body weight / body weight gain + systemic / pathology microscopic / nose / hyperplasia
rat [2] = details: Multigenerational reproductive toxicity study, sprague dawley, Oral, Water, dose end: 2 generation
rat [3] = details: Multigenerational reproductive toxicity study, wistar, Oral, Water, dose end: 2 generation
mouse [4] = details: Subchronic oral toxicity in rodents, cd1, Water, dose end: 90 day, group: systemic, systemic / pathology microscopic / stomach / inflammation + systemic / urinalysis / specific gravity/osmolality / specific gravity/…
mouse [5] = details: Subchronic inhalation toxicity, b6c3f1, Whole-Body, dose end: 13 week
rat [6] = details: Multigenerational reproductive toxicity study; sprague dawley; Oral; Water; dose end: 2 generation; group: offspring; systemic / in life observation / body weight / offspring (pup) weight
[7] = group: offspring, systemic / in life observation / body weight / offspring (pup) weight gain
[8] = group: parental, systemic / in life observation / water consumption / water consumption
[9] = group: offspring, systemic / in life observation / body weight / litter weight + systemic / in life observation / body weight / offspring (pup) weight
[10] = group: parental, systemic / in life observation / body weight / body weight + systemic / in life observation / body weight / body weight gain + systemic / in…
[11] = group: developmental, developmental / developmental malformation / penis / paraphimosis
[12] = group: maternal, reproductive / reproductive performance / estrous cycle / abnormal
[13] = group: systemic, systemic / pathology microscopic / nose / inflammation
[14] = group: systemic, systemic / pathology microscopic / nose / inflammation + systemic / in life observation / body weight / body weight gain

O=CCCCC=O [Glutaraldehyde]
LEL (dog): 14.6 mg/kg/day
LOAEL (dog): 14.6 mg/kg/day
NEL (dog): 9.8 mg/kg/day
NOAEL (dog): 9.8 mg/kg/day
LEL (mouse [1]): 0.1 ppm
LOAEL (mouse [1]): > 0.1 ppm
NEL (mouse [1]): < 0.1 ppm
NOAEL (mouse [1]): ≥ 0.1 ppm
LEL (rat [2]; [7]): 98.4 mg/kg/day
LOAEL (rat [2]; [7]): 98.4 mg/kg/day
NEL (rat [2]; [7]): 28.3 mg/kg/day
NOAEL (rat [2]; [7]): 28.3 mg/kg/day
LEL (rat [2]; [8]): 19.5 mg/kg/day
LOAEL (rat [2]; [8]): > 69.1 mg/kg/day
NEL (rat [2]; [8]): 4.25 mg/kg/day
NOAEL (rat [2]; [8]): ≥ 69.1 mg/kg/day
LEL (rat [3]; [9]): 76 mg/kg/day
LOAEL (rat [3]; [9]): 76 mg/kg/day
NEL (rat [3]; [9]): 22.4 mg/kg/day
NOAEL (rat [3]; [9]): 22.4 mg/kg/day
LOAEL (rat [3]; [10]): 76 mg/kg/day
NOAEL (rat [3]; [10]): 22.4 mg/kg/day
LEL (rat [3]; [8]): 22.4 mg/kg/day
NEL (rat [3]; [8]): 4.7 mg/kg/day
LEL (mouse [4]): 200 mg/kg/day
LOAEL (mouse [4]): 200 mg/kg/day
NEL (mouse [4]): 60.8 mg/kg/day
NOAEL (mouse [4]): 60.8 mg/kg/day
LEL (mouse [5]; [11]): 1 ppm
LOAEL (mouse [5]; [11]): > 1 ppm
NEL (mouse [5]; [11]): 0.5 ppm
NOAEL (mouse [5]; [11]): ≥ 1 ppm
LEL (mouse [5]; [12]): 0.5 ppm
LOAEL (mouse [5]; [12]): > 1 ppm
NEL (mouse [5]; [12]): 0.25 ppm
NOAEL (mouse [5]; [12]): ≥ 1 ppm
LOAEL (mouse [5]; [13]): 0.0625 ppm
NOAEL (mouse [5]; [13]): < 0.0625 ppm
LEL (mouse [5]; [14]): 0.0625 ppm
NEL (mouse [5]; [14]): < 0.0625 ppm
LEL (rat [6]): 71.1 mg/kg/day
LOAEL (rat [6]): 71.1 mg/kg/day
